{"source": "patent US20250177530A1", "about": "“MOLECULES THAT BIND TO ENPP1 POLYPEPTIDES” (UNIVERSITY OF PITTSBURGH - OF THE COMMONWEALTH SYSTEM OF …, priority 2022, published 2025)", "assay_in_all_cases": "ADC cytotoxicity (Cell Titer-Glo cell viability)", "assay_type_in_all_cases": "cell-based", "key": {"293T-ENPP1 cells": {"system": "293T-ENPP1 cells", "experimental": "(§1) The cell-killing activity of anti-ENPP1 CAR^+ T cells and BiTEs were measured by LDH-Glo cytotoxicity assay kit (Promega, Madison, WI, USA). For the cell-killing activity of anti-ENPP1 CAR^+ T cells, control T cells or CAR^+ T cells as effector cells were incubated with 293T, 293T-ENPP1, and HepG2 target cells (5×10^3 cells/well in 96-well plate) separately at indicated E:T ratio for 24 hours at 37° C. For the cell-killing activity of BiTEs, target cells (1×10^4 cells/well) were mixed with serially diluted BiTEs in 50 μL of growth medium, and […] activated T cells were added at the ET ratio 10:1 and cultured for 24 hours at 37° C. in 5% CO2 humidified atmosphere. Controls for the calculation of percentage cytotoxicity were performed according to the manufacturer's instructions. The calculation of relative % cytotoxicity as follows: relative % cytotoxicity=100×(Experimental LDH release-medium background)/(target and effector maximum LDH release control-medium background). For the cell-killing activity of ADC, 293T, 293T-ENPP1, and HepG2 cells were seeded at 2000 cells/well in 96-well white plate and incubated overnight at 37° C. in 5% CO2. Serial diluted anti-ENPP1 ADC was added and cultured for 4 days at 37° C. in 5% CO2. Images were captured under a 4×objective microscope (Olympus microscope, Westborough, MA, USA). Controls with cells only were used for calculation of percent relative cell viability. At the end of the time point, the Cell Titer-Glo Luminescent cell viability assay kit (Promega) was used to measure the cell viability. The calculation of % Relative cell viability was as follows: % Relative cell viability=100×(Experimental luminescence values-medium Background)/(Control luminescence values-medium Background). For ADCC, the ADCC reporter bioassay complete kit (Promega) was used, the experiment was performed following the manufacturer's instructions. The 293T-ENPP1 cell line was used as target cell."}, "293T cells": {"system": "293T cells", "experimental": "as §1"}, "HepG2 cells": {"system": "HepG2 cells", "details": "200 nM", "experimental": "as §1"}}, "note": "Non-standard residues stand in square brackets, D forms with d. Residues, ends and D or L forms follow the SMILES beside them. *: point of attachment. Dolaproine = CO[C@@H]([C@@H]1CCCN1)[C@@H](C)C(=O)O; Dil = CC[C@H](C)[C@H](NC)[C@@H](CC(=O)O)OC; X1 = C[C@@H](N*)[C@@H](O)c1ccccc1; NMeV = CN[C@H](C(=O)O)C(C)C", "data": [{"compound": "CC[C@H](C)[C@@H]([C@@H](CC(=O)N1CCC[C@H]1[C@H](OC)[C@@H](C)C(=O)N[C@H](C)[C@@H](O)c1ccccc1)OC)N(C)C(=O)[C@@H](NC(=O)[C@@H](NC)C(C)C)C(C)C", "note": "[MMAE, monomethyl auristatin E, reference compound] (H-[NMeV]V[Dil][Dolaproine]-X1)", "values": [{"measurement": "killing at 200 nM", "setting": "293T-ENPP1 cells", "value": "non-specific killing"}, {"measurement": "killing at 200 nM", "setting": "293T cells; 200 nM", "value": "non-specific killing"}, {"measurement": "killing at lower concentrations", "setting": "293T cells; concentrations below 200 nM", "value": "no non-specific killing"}, {"measurement": "killing effects of free MMAE and ADC compared", "setting": "HepG2 cells", "value": "comparable"}]}]}
